Columns and labels:
Type in all cases: cell-based
human M4 receptor = biological target: T1, human M4 receptor (Homo sapiens, UniProt P08173); assay: In vitro functional assay, reversal of EC80 acetylcholine response in CHO-K1 aequorin cells
T1 sequence (P08173 1-479): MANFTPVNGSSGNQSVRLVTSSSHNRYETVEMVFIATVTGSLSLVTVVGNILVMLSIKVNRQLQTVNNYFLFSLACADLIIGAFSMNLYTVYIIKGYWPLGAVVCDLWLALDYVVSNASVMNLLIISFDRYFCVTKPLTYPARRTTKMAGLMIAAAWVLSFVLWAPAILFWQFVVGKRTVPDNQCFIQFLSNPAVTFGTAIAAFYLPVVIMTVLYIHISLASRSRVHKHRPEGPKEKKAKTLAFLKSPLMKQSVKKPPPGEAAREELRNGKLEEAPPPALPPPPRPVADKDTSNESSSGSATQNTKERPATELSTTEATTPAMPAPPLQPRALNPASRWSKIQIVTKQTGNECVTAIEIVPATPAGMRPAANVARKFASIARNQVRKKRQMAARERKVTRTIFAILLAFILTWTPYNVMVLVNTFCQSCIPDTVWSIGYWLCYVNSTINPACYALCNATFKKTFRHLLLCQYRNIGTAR
Description: (§1) CHO-K1 cells stably expressing human M1 receptor with aequorin (Perkin Elmer) were grown in F12 media (Gibco) containing 10% FBS (ATCC), 0.4 mg/mL geneticin (Sigma-Aldrich) and 0.25 mg/mL Zeocin (Invitrogen). Cells were grown as per the manufacturer's protocol. For compound testing, cells were grown to confluency and detached gently with Accutase (Sigma-Aldrich) followed by centrifugation for 5 min at 150× g. Cells were then re-suspended in assay buffer (i.e. DMEM/F-12 HEPES without phenol red (Invitrogen) with 0.1% BSA (Sigma-Aldrich)) at a density of 5×10^6 cells/ml. Under sterile conditions, 5 μM coelenterazine (Invitrogen) was added to the cells, mixed, then incubated at room temperature protected from light, with gentle agitation, for 4 h.
(§2) Primary compound plates were prepared in 100% DMSO in opaque 96-well plates (VWR) and serially diluted in half log increments. Secondary compound plates were prepared at 3× concentration in assay buffer. Compounds were added to white, clear bottom tissue culture treated 96-well plates (Fisher Scientific). Coelenterazine-loaded cells were then added at 5×10^5 cells/well.
(§3) Compounds and cells were incubated at room temperature for 30 min in the dark. Acetylcholine at the EC80 concentration was added and calcium flux measured using a FlexStation 3 (Molecular Devices). Sigmoidal dose-response curves were generated by measuring luminescence over 40 sec and calculating the area under the curve. Dose response curves and IC50 values were generated using Prism (GraphPad). Compounds were tested at a final concentration range of 100 μM to […] in 0.1% DMSO.
(§4) CHO-K1 cells stably expressing human M2, M3 and M4 receptors, respectively, with aequonin (Perkin Elmer) were used to assess a test compound's ability to dose-dependently reverse the EC80 acetylcholine response. The IC50 of the compounds was calculated from the dose response curve.

human M2 receptor = biological target: T2, human M2 receptor (Homo sapiens, UniProt P08172); assay: as above
T2 sequence (P08172 1-466): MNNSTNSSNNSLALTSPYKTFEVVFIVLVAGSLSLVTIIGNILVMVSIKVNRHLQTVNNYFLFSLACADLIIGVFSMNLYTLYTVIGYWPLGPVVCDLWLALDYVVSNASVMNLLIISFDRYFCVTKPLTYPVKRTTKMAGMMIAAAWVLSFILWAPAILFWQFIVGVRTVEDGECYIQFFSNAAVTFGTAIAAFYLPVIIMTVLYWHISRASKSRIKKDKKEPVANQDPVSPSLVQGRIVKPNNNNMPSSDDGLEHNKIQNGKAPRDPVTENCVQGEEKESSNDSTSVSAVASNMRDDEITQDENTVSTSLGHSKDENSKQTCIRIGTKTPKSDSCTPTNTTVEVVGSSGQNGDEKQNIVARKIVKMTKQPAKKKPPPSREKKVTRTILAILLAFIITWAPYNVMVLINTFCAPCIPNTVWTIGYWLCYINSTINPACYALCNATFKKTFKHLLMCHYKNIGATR
Description: as §1, §2, §3, §4

human M3 receptor = human M3 receptor (Homo sapiens, UniProt P20309); assay: as above
human M3 receptor, sequence (P20309 whole entry): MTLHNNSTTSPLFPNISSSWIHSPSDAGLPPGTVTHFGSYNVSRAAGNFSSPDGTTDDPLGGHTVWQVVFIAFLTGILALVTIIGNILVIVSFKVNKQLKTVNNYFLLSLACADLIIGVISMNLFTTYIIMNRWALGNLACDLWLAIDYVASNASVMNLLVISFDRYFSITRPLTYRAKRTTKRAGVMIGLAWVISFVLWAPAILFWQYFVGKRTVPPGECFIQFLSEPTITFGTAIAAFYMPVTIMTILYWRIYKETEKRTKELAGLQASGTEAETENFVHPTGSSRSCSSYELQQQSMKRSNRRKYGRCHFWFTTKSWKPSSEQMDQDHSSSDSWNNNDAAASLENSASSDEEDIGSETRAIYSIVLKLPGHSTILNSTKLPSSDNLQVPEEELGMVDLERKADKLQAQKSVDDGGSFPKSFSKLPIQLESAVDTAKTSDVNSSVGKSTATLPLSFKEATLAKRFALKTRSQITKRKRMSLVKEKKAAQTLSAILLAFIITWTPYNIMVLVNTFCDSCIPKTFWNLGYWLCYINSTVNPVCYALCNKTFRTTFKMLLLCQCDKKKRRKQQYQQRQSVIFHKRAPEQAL
Description: as §1, §2, §3, §4

human M1 receptor = biological target: T3, human M1 receptor (Homo sapiens, UniProt P11229); assay: In vitro functional assay of muscarinic acetylcholine receptor activity (aequorin calcium flux, reversal of EC80 acetylcholine response); settings: CHO-K1 cells stably expressing human M1 receptor with aequorin; acetylcholine at EC80; calcium flux (luminescence); read-out: M1 IC50
T3 sequence (P11229 1-460): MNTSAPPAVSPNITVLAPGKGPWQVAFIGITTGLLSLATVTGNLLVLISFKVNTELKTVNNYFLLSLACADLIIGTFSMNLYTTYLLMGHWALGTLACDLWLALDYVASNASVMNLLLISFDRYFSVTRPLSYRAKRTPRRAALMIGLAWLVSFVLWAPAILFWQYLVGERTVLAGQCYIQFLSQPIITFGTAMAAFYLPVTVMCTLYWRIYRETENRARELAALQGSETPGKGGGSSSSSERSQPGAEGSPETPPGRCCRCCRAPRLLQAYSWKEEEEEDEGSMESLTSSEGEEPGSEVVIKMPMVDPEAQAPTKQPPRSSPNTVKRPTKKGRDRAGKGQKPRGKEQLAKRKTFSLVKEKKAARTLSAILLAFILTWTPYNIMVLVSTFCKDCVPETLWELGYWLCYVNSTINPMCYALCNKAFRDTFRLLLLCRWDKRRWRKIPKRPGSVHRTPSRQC
Method in brief: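 CHO-K1 cells expressing human M1 and aequorin, loaded with 5 μM coelenterazine for 4 h, preincubated with compound 30 min at room temperature, then challenged with EC80 acetylcholine.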

| Structure (SMILES) | IC50 (human M4 receptor) [nM] | IC50 (human M2 receptor) [nM] | IC50 (human M3 receptor) [nM] | IC50 (human M1 receptor) [nM] |
| --- | --- | --- | --- | --- |
| COc1cc(C2(NCC(=O)N3CC4CCC(C3)N4c3ccc(C#N)cn3)CCC2)ccn1 [Example 118, 6-(3-((1-(2-methoxypyridin-4-yl)cyclobutyl)glycyl)-3,8-diazabicyclo[3.2.1]octan-8-yl)nicotinonitrile] | 100 to 1000 | 1000 to 10000 | 1000 to 10000 | 10 to 100 |
| COc1cc(C(F)(F)CCC(=O)N2CC3CCC(C2)N3c2ccc(C#N)cn2)ccn1 [Example 138, 6-(3-(4,4-difluoro-4-(2-methoxypyridin-4-yl)butanoyl)-3,8-diazabicyclo[3.2.1]octan-8-yl)nicotinonitrile] | 100 to 1000 | 1000 to 10000 | 100 to 1000 | < 10 |
| COc1ccnc(C(F)(F)CCC(=O)N2CC3CCC(C2)N3c2ccc(C#N)cn2)c1 [Example 147, 6-(3-(4,4-difluoro-4-(4-methoxypyridin-2-yl)butanoyl)-3,8-diazabicyclo[3.2.1]oxtan-8-yl)nicotinonitrile] | 100 to 1000 | 1000 to 10000 | 100 to 1000 | < 10 |
| N#Cc1ccc(N2C3CCC2CN(C(=O)CCC(F)(F)c2cccn4ncnc24)C3)nc1 [Example 158, 6-(3-(4-([1,2,4]triazolo[1,5-a]pyridin-8-yl)-4,4-difluorobutanoyl)-3,8-diazabicyclo[3.2.1]octan-8-yl)nicotinonitrile] | 100 to 1000 | 1000 to 10000 | 100 to 1000 | < 10 |
| COc1cccnc1C(F)(F)CCC(=O)N1CC2CCC(C1)N2c1ccc(C#N)cn1 [Example 162, 6-(3-(4,4-difluoro-4-(3-methoxypyridin-2-yl)butanoyl)-3,8-diazabicyclo[3.2.1]octan-8-yl)nicotinonitrile] | 100 to 1000 | 1000 to 10000 | 100 to 1000 | < 10 |
| N#Cc1ccc(N2C3CCC2CN(C(=O)COC2(c4ccc(F)c(F)c4)CC2)C3)nc1 [Example 177, 6-(3-(2-(1-(3,4-difluorophenyl)cyclopropoxy)acetyl)-3,8-diazabicyclo[3.2.1]octan-8-yl)nicotinonitrile] | 1000 to 10000 | 1000 to 10000 | 1000 to 10000 | 10 to 100 |
| N#Cc1ccc(N2C3CC[C@H]2CN(C(=O)COC2(c4ccc(F)c(F)c4)CCC2)C3)nc1 [Example 239] | 1000 to 10000 | 1000 to 10000 | 1000 to 10000 | < 10 |
